Test results: ChEMBL document CHEMBL1201862, “PubChem BioAssay data set” (2004)
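96-well plates; 48 h exposure; 5 concentrations. Endpoints by linear interpolation between flanking doses. Not reached: highest tested concentration assigned. At the GI50, growth is halved.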 The source made the active and inactive calls. No stated cut-off is given here; in the data, active = GI50 up to about 1.1 µM and inactive = higher.

Columns and labels:
Assay in all cases: NCI-60 cell line screen, 48 h
[1] = tested on: MDA-MB-231
[2] = tested on: OVCAR-3
[3] = tested on: SK-MEL-5
[4] = tested on: SF-268
[5] = tested on: 786-0
[6] = tested on: U-251
[7] = tested on: A549
[8] = tested on: HCC 2998
[9] = tested on: SF-295
[10] = tested on: UACC-62
[11] = tested on: OVCAR-4
[12] = tested on: CCRF-CEM
[13] = tested on: MDA-MB-435
[14] = tested on: DU-145
[15] = tested on: NCI-H226
[16] = tested on: HCT-15
[17] = tested on: A498
[18] = tested on: MCF7
[19] = tested on: UACC-257
[20] = tested on: SK-MEL-2

Structure (SMILES)	GI50 [1]	GI50 [2]	GI50 [3]	GI50 [4]	GI50 [5]	GI50 [6]	GI50 [7]	GI50 [8]	GI50 [9]	GI50 [10]	GI50 [11]	GI50 [12]	GI50 [13]	GI50 [14]	GI50 [15]	GI50 [16] [µM]	GI50 [17]	GI50 [18]	GI50 [19]	GI50 [20]
COC1/C=C/C(C)C(OC)CC(O)/C=C/C(C)C(C(C)C(OC)C(C)CCC(=O)C(C)C(C/C=C/N(C)C=O)OC)OC(=O)/C=C/C=C(\C)CC(OC)C(OC)C2=CC(=O)O[C@@H](C(C)C(OC)C1)[C@H]2O (some centres undefined)	0.0366 µM (active)	0.00596 µM (active)	0.0387 µM (active)	0.0442 µM (active)	0.0442 µM (active)	0.0303 µM (active)	0.0518 µM (active)	0.0182 µM (active)	0.0345 µM (active)	0.0571 µM (active)	0.0421 µM (active)	0.0499 µM (active)	0.0532 µM (active)	0.0959 µM (active)	0.0194 µM (active)	0.015	0.0289 µM (active)	0.0251 µM (active)	0.0448 µM (active)	
CO/C(=N\N=C(/C)C(F)(F)F)c1ccncc1	> 100 µM (inactive)	> 100 µM (inactive)	> 100 µM (inactive)			> 100 µM (inactive)				> 100 µM (inactive)	> 100 µM (inactive)	> 100 µM (inactive)	> 100 µM (inactive)	> 100 µM (inactive)	> 100 µM (inactive)	> 100	15.5 µM (inactive)	> 100 µM (inactive)		> 100 µM (inactive)
CCOC(=O)/C=C/C1(CCOC(C)=O)CCCCC1	> 10 µM (inactive)	> 10 µM (inactive)	> 10 µM (inactive)	> 10 µM (inactive)	> 10 µM (inactive)	> 10 µM (inactive)	> 10 µM (inactive)	> 10 µM (inactive)	> 10 µM (inactive)	> 10 µM (inactive)	> 10 µM (inactive)	> 10 µM (inactive)	> 10 µM (inactive)	> 10 µM (inactive)	> 10 µM (inactive)	> 10		> 10 µM (inactive)	> 10 µM (inactive)	> 10 µM (inactive)
Nc1ncnc2c1ncn2C1OC(C(=O)OCCO)C(O)C1O (centres undefined)	> 100 µM (inactive)	> 100 µM (inactive)	> 100 µM (inactive)	> 100 µM (inactive)	> 100 µM (inactive)	> 100 µM (inactive)	> 100 µM (inactive)		> 100 µM (inactive)	> 100 µM (inactive)	> 100 µM (inactive)	> 100 µM (inactive)	> 100 µM (inactive)	> 100 µM (inactive)	> 100 µM (inactive)	> 100	> 100 µM (inactive)	> 100 µM (inactive)	> 100 µM (inactive)	> 100 µM (inactive)
CC1(C)C[C@H]2C3=CC[C@@H]4[C@@]5(C)CC[C@H](O)C(C)(C)[C@@H]5CC[C@@]4(C)[C@]3(C)C[C@@H](O)[C@@]23C[C@@H]1OC3=O	> 100 µM (inactive)	> 100 µM (inactive)	55.2 µM (inactive)	> 100 µM (inactive)	> 100 µM (inactive)	> 100 µM (inactive)	72.9 µM (inactive)	96.8 µM (inactive)	74.6 µM (inactive)	> 100 µM (inactive)	37.2 µM (inactive)	> 100 µM (inactive)	> 100 µM (inactive)	> 100 µM (inactive)		> 100	> 100 µM (inactive)	59.2 µM (inactive)	> 100 µM (inactive)	> 100 µM (inactive)
NC(=O)C1CCCN1C(=O)C(Cc1c[nH]cn1)NC(=O)C1CCCC1 (centres undefined)	> 100 µM (inactive)	> 100 µM (inactive)	> 100 µM (inactive)		> 100 µM (inactive)	> 100 µM (inactive)	> 100 µM (inactive)	> 100 µM (inactive)	> 100 µM (inactive)	> 100 µM (inactive)	> 100 µM (inactive)	> 100 µM (inactive)	> 100 µM (inactive)	> 100 µM (inactive)	> 100 µM (inactive)	> 100	23.4 µM (inactive)	> 100 µM (inactive)		
CSc1nc(C)c2c(n1)SCC2	> 10 µM (inactive)	> 10 µM (inactive)	> 10 µM (inactive)	> 10 µM (inactive)	> 10 µM (inactive)	> 10 µM (inactive)	> 10 µM (inactive)		> 10 µM (inactive)	> 10 µM (inactive)	> 10 µM (inactive)	> 10 µM (inactive)	> 10 µM (inactive)	> 10 µM (inactive)	> 10 µM (inactive)	> 10	> 10 µM (inactive)	> 10 µM (inactive)	> 10 µM (inactive)	
O=C(OCc1c(-c2ccccc2)nn(-c2ccccc2)c1COC(=O)Oc1ccccc1)Oc1ccccc1	> 100 µM (inactive)	> 100 µM (inactive)	31.8 µM (inactive)	> 100 µM (inactive)	> 100 µM (inactive)	> 100 µM (inactive)	> 100 µM (inactive)	> 100 µM (inactive)	> 100 µM (inactive)	> 100 µM (inactive)	> 100 µM (inactive)	> 100 µM (inactive)	> 100 µM (inactive)	> 100 µM (inactive)	> 100 µM (inactive)	> 100	> 100 µM (inactive)	> 100 µM (inactive)	> 100 µM (inactive)	
CNC1(c2cc3ccccc3s2)CCCCC1	23.2 µM (inactive)	28.2 µM (inactive)	16.3 µM (inactive)	14.2 µM (inactive)	19.2 µM (inactive)	17.8 µM (inactive)	48.1 µM (inactive)	14.9 µM (inactive)	25 µM (inactive)	20.6 µM (inactive)	27.7 µM (inactive)	< 0.01 µM (active)	16.8 µM (inactive)	40.1 µM (inactive)	32.7 µM (inactive)	31.8	33.3 µM (inactive)	29.5 µM (inactive)	18.2 µM (inactive)	
C=CCOCn1cc(F)c(=O)[nH]c1=O	> 100 µM (inactive)		> 100 µM (inactive)	> 100 µM (inactive)	> 100 µM (inactive)		> 100 µM (inactive)	> 100 µM (inactive)	> 100 µM (inactive)	> 100 µM (inactive)		> 100 µM (inactive)	> 100 µM (inactive)	> 100 µM (inactive)	> 100 µM (inactive)	> 100	> 100 µM (inactive)	> 100 µM (inactive)	> 100 µM (inactive)	
COc1ccc2c(c1)c1c(C)c3cnccc3c(C)c1n2CCCN	0.145 µM (active)	0.453 µM (active)	0.383 µM (active)		0.0288 µM (active)		0.296 µM (active)	0.457 µM (active)	0.257 µM (active)	0.41 µM (active)	0.0541 µM (active)		0.0502 µM (active)	0.0603 µM (active)		0.0925	0.451 µM (active)	0.251 µM (active)	0.518 µM (active)	0.401 µM (active)
O=C1CSC(c2ccc(Cl)cc2)N1c1ccc(Oc2ccc(Cl)cc2)c(Cl)c1 (centres undefined)	16.4 µM (inactive)	15 µM (inactive)	17.1 µM (inactive)	10.7 µM (inactive)	16.8 µM (inactive)	16.6 µM (inactive)	16.2 µM (inactive)	17.2 µM (inactive)	16.3 µM (inactive)	15.4 µM (inactive)	14.7 µM (inactive)	5.46 µM (inactive)	17.6 µM (inactive)	13.1 µM (inactive)	17.4 µM (inactive)	15.8		21.9 µM (inactive)	18.2 µM (inactive)	16 µM (inactive)
CCOC(=O)C1(C/C=C\CBr)CCCCCCC1=O (centres undefined)	> 100 µM (inactive)		> 100 µM (inactive)	> 100 µM (inactive)	> 100 µM (inactive)	> 100 µM (inactive)	> 100 µM (inactive)		> 100 µM (inactive)	> 100 µM (inactive)	> 100 µM (inactive)	> 100 µM (inactive)	> 100 µM (inactive)	> 100 µM (inactive)	> 100 µM (inactive)	> 100	> 100 µM (inactive)	> 100 µM (inactive)	> 100 µM (inactive)	> 100 µM (inactive)
COc1nc2ccc(COc3ccc(C(=O)NC(CCC(=O)O)C(=O)O)cc3)cc2nc1OC (centres undefined)	> 10 µM (inactive)	> 10 µM (inactive)	> 10 µM (inactive)	> 10 µM (inactive)		> 10 µM (inactive)	> 10 µM (inactive)	> 10 µM (inactive)	> 10 µM (inactive)	> 10 µM (inactive)	> 10 µM (inactive)	> 10 µM (inactive)	> 10 µM (inactive)	> 10 µM (inactive)	> 10 µM (inactive)	> 10		> 10 µM (inactive)	> 10 µM (inactive)	> 10 µM (inactive)
C(/C=N/c1ccccc1)=C(/Nc1ccccc1)c1ccc2ccccc2c1	1.29 µM (inactive)	1.46 µM (inactive)	2.63 µM (inactive)	4.71 µM (inactive)	2.45 µM (inactive)	2.65 µM (inactive)	4.08 µM (inactive)		1.47 µM (inactive)	0.548 µM (active)	1.99 µM (inactive)	1.1 µM (active)	0.299 µM (active)	2.02 µM (inactive)	1.77 µM (inactive)	1.06	12.4 µM (inactive)	3.18 µM (inactive)	4.55 µM (inactive)	5.55 µM (inactive)
